# Data from PubChem BioAssay AID222 (DTP/NCI, 2004).
# “And” between values parts separate entries of the source, which are not always exact repeats. Equal values may be shown once. Inconclusive results and toxic doses are left out.
# System: C57BL/6 mice, intracerebral ependymoblastoma, median survival T/C
# Test: NCI In Vivo Anticancer Drug Screen. Data for tumor model Ependymoblastoma (intracerebral) in C57BL/6 mice
# Details: endpoint: median survival time, higher = longer survival
# Method: The antitumor activity of compounds was measured in mice bearing transplantable tumors. Survival or tumor size were measured and the results are expressed as the measurement made in the treated group (T) divided by the measurement made in the vehicle treated control group (C). The tumor model used in this assay is Ependymoblastoma (intracerebral) in C57BL/6 mice
compound,measurement,setting,value
CC(=O)CC(c1ccccc1)c1c(O)c2ccccc2oc1=O (centres undefined),T/C,"dose: 0.09 mg/kg/injection, schedule: Q01DX005 (ip), vehicle: saline",93 % of control
same,T/C,"dose: 0.18 mg/kg/injection, schedule: Q01DX005 (ip), vehicle: saline",115 % of control
same,T/C,"dose: 0.36 mg/kg/injection, schedule: Q01DX005 (ip), vehicle: saline",98 % of control
same,T/C,"dose: 1.44 mg/kg/injection, schedule: Q01DX005 (ip), vehicle: saline",87 % of control
O=NN(CCCl)C(=O)NC1CCC(=O)NC1=O (centres undefined),T/C,"dose: 0.5 mg/kg/injection, schedule: Q01DX005 (ip), vehicle: Klucel (hydroxypropylcellulose) (HPC)",103 % of control
same,T/C,"dose: 0.5 mg/kg/injection, schedule: Q01DX005 (ip), vehicle: suspension in saline",118 % of control
same,T/C,"dose: 0.62 mg/kg/injection, schedule: Q01DX001 (ip), vehicle: other",100 % of control
same,T/C,"dose: 1.0 mg/kg/injection, schedule: Q01DX005 (ip), vehicle: Klucel (hydroxypropylcellulose) (HPC)",100 % of control
same,T/C,"dose: 1.0 mg/kg/injection, schedule: Q01DX005 (ip), vehicle: suspension in saline",114 % of control
same,T/C,"dose: 1.25 mg/kg/injection, schedule: Q01DX001 (ip), vehicle: other",101 % of control
same,T/C,"dose: 1.75 mg/kg/injection, schedule: Q01DX001 (ip), vehicle: other",104 % of control
same,T/C,"dose: 2.0 mg/kg/injection, schedule: Q#A X002 (ip), vehicle: saline",100 % of control and 111 % of control
same,T/C,"dose: 2.5 mg/kg/injection, schedule: Q01DX001 (ip), vehicle: other",100 % of control
same,T/C,"dose: 3.5 mg/kg/injection, schedule: Q01DX001 (ip), vehicle: other",102 % of control and 104 % of control
same,T/C,"dose: 3.5 mg/kg/injection, schedule: Q01DX001 (ip), vehicle: saline with Tween-80",95 % of control
same,T/C,"dose: 4.0 mg/kg/injection, schedule: Q01DX001 (ip), vehicle: saline with Tween-80",106 % of control
same,T/C,"dose: 4.0 mg/kg/injection, schedule: Q01DX005 (ip), vehicle: Klucel (hydroxypropylcellulose) (HPC)",290 % of control
same,T/C,"dose: 4.0 mg/kg/injection, schedule: Q01DX005 (ip), vehicle: suspension in saline",298 % of control
same,T/C,"dose: 4.0 mg/kg/injection, schedule: Q#A X002 (ip), vehicle: saline",98 % of control and 99 % of control
same,T/C,"dose: 5.0 mg/kg/injection, schedule: Q01DX001 (ip), vehicle: other",119 % of control
same,T/C,"dose: 5.0 mg/kg/injection, schedule: Q01DX001 (oral), vehicle: other",161 % of control
same,T/C,"dose: 7.0 mg/kg/injection, schedule: Q01DX001 (ip), vehicle: other",113 % of control and 119 % of control
same,T/C,"dose: 8.0 mg/kg/injection, schedule: Q01DX001 (ip), vehicle: saline with Tween-80",106 % of control
same,T/C,"dose: 8.0 mg/kg/injection, schedule: Q01DX005 (ip), vehicle: Klucel (hydroxypropylcellulose) (HPC)",281 % of control
same,T/C,"dose: 8.0 mg/kg/injection, schedule: Q#A X002 (ip), vehicle: saline",102 % of control
same,T/C,"dose: 10.0 mg/kg/injection, schedule: Q01DX001 (ip), vehicle: other",162 % of control
same,T/C,"dose: 10.0 mg/kg/injection, schedule: Q01DX001 (oral), vehicle: other",210 % of control
same,T/C,"dose: 10.0 mg/kg/injection, schedule: Q07DX003 (ip), vehicle: saline",318 % of control
same,T/C,"dose: 14.0 mg/kg/injection, schedule: Q01DX001 (ip), vehicle: saline with Tween-80",102 % of control
same,T/C,"dose: 16.0 mg/kg/injection, schedule: Q01DX001 (ip), vehicle: saline with Tween-80",104 % of control
same,T/C,"dose: 16.0 mg/kg/injection, schedule: Q01DX001 (oral), vehicle: Klucel (hydroxypropylcellulose) (HPC)",106 % of control
same,T/C,"dose: 16.0 mg/kg/injection, schedule: Q#A X002 (ip), vehicle: saline",102 % of control and 112 % of control
same,T/C,"dose: 20.0 mg/kg/injection, schedule: Q01DX001 (oral), vehicle: other",90 % of control
same,T/C,"dose: 20.0 mg/kg/injection, schedule: Q07DX003 (ip), vehicle: saline",117 % of control
same,T/C,"dose: 28.0 mg/kg/injection, schedule: Q01DX001 (ip), vehicle: other",100 % of control and 103 % of control
same,T/C,"dose: 28.0 mg/kg/injection, schedule: Q01DX001 (ip), vehicle: saline with Tween-80",93 % of control
same,T/C,"dose: 32.0 mg/kg/injection, schedule: Q01DX001 (ip), vehicle: saline with Tween-80",105 % of control
same,T/C,"dose: 32.0 mg/kg/injection, schedule: Q01DX001 (oral), vehicle: Klucel (hydroxypropylcellulose) (HPC)",102 % of control
same,T/C,"dose: 32.0 mg/kg/injection, schedule: Q#A X002 (ip), vehicle: saline",100 % of control
same,T/C,"dose: 56.0 mg/kg/injection, schedule: Q01DX001 (ip), vehicle: other",88 % of control
same,T/C,"dose: 56.0 mg/kg/injection, schedule: Q01DX001 (ip), vehicle: saline with Tween-80",93 % of control
same,T/C,"dose: 64.0 mg/kg/injection, schedule: Q01DX001 (ip), vehicle: saline with Tween-80",109 % of control
same,T/C,"dose: 64.0 mg/kg/injection, schedule: Q01DX001 (oral), vehicle: Klucel (hydroxypropylcellulose) (HPC)",100 % of control
same,T/C,"dose: 128.0 mg/kg/injection, schedule: Q01DX001 (oral), vehicle: Klucel (hydroxypropylcellulose) (HPC)",102 % of control
same,T/C,"dose: 256.0 mg/kg/injection, schedule: Q01DX001 (oral), vehicle: Klucel (hydroxypropylcellulose) (HPC)",104 % of control
OC(CCl)CN1CC[N+]2(CC1)CC[N+]1(CCN(CC(O)CCl)CC1)CC2 (centres undefined),T/C,"dose: 40.0 mg/kg/injection, schedule: Q01DX005 (ip), vehicle: saline",109 % of control and 117 % of control
Nc1ncnc2c1ncn2C1OC(COP(=O)(O)O)C(O)C1O (centres undefined),T/C,"dose: 100.0 mg/kg/injection, schedule: Q01DX005 (ip), vehicle: saline",104 % of control
same,T/C,"dose: 200.0 mg/kg/injection, schedule: Q01DX005 (ip), vehicle: saline",100 % of control
same,T/C,"dose: 800.0 mg/kg/injection, schedule: Q01DX005 (ip), vehicle: saline",119 % of control
